Test results reported in ChEMBL document CHEMBL1154198, “Chemical genetics of Plasmodium falciparum” (Nature, 2010).

Assays:
Plasmodium falciparum [1] = test: ST_JUDE: Plasmodium falciparum K1 EC50 (uM) as measured by SYBR green dye; assay type: functional, organism-based
Plasmodium falciparum [2] = test: ST_JUDE: Plasmodium falciparum 3D7 EC50 (uM) as measured by SYBR green dye; assay type: functional, organism-based

Oc1ccc(C(c2ccc(O)cc2)C(Cl)(Cl)Cl)cc1
EC50 (Plasmodium falciparum [1]): 3.6 µM
EC50 (Plasmodium falciparum [2]): 3.95 µM

CC(=O)Nc1ccc(Nc2c3ccccc3nc3ccccc23)cc1
EC50 (Plasmodium falciparum [1]): 1.37 µM
EC50 (Plasmodium falciparum [2]): 2.69 µM

CCCCCOc1ccc(NC2=C(N3CCCC3)C(=O)c3ccccc3C2=O)cc1
EC50 (Plasmodium falciparum [1]): 1.92 µM
EC50 (Plasmodium falciparum [2]): > 15 µM

COc1ccc(-c2nonc2NC(=O)c2ccc(C(C)(C)C)cc2)cc1OC
EC50 (Plasmodium falciparum [1]): 1.17 µM
EC50 (Plasmodium falciparum [2]): 1.06 µM

Cc1ccc(C2CC(c3cccs3)=NN2C(=O)c2ccc(Br)o2)cc1 (stereo unspecified)
EC50 (Plasmodium falciparum [1]): > 15 µM
EC50 (Plasmodium falciparum [2]): 0.532 µM

Cc1cc(N2CCN(C)CC2)nc2ccc(NC(=O)c3cccc(N(C)C)c3)cc12
EC50 (Plasmodium falciparum [1]): 6.32 µM
EC50 (Plasmodium falciparum [2]): 0.62 µM

CC(=O)N(C)C1=C(N2CCOCC2)C(=O)c2ccccc2C1=O
EC50 (Plasmodium falciparum [1]): 4.78 µM
EC50 (Plasmodium falciparum [2]): 2.72 µM

CN1CCN(c2ccc(-c3cccc(NC(=O)c4cccc([N+](=O)[O-])c4)c3)nn2)CC1
EC50 (Plasmodium falciparum [1]): 3.83 µM
EC50 (Plasmodium falciparum [2]): > 15 µM

Oc1c2c(nc3cc(-c4ccc(Br)cc4)nn13)CCCC2
EC50 (Plasmodium falciparum [1]): 0.632 µM
EC50 (Plasmodium falciparum [2]): > 15 µM

CN1CCN(c2cc(N3CCN(C)CC3)c([N+](=O)[O-])cc2C2Nc3ccc4ccccc4c3C3=C2C(=O)CC(C)(C)C3)CC1 (stereo unspecified)
EC50 (Plasmodium falciparum [1]): > 15 µM
EC50 (Plasmodium falciparum [2]): 3.44 µM

CCCOc1ccc(-c2[nH]ncc2Oc2ccccc2)c(O)c1
EC50 (Plasmodium falciparum [1]): 2.49 µM
EC50 (Plasmodium falciparum [2]): 4.7 µM

CN1CCN(CCCNC(=O)c2ccc3c(c2)sc2nc(-c4ccccc4)cn23)CC1
EC50 (Plasmodium falciparum [1]): 9.15 µM
EC50 (Plasmodium falciparum [2]): 4.06 µM

COc1ccc(CN2CCN(Cc3cc(Br)ccc3O)CC2)cc1OC
EC50 (Plasmodium falciparum [1]): 6.31 µM
EC50 (Plasmodium falciparum [2]): 4.91 µM

O=Cc1ccc2noc(-c3ccc(Cl)cc3)c2c1
EC50 (Plasmodium falciparum [1]): > 15 µM
EC50 (Plasmodium falciparum [2]): > 15 µM

COc1ccc(C2C(C(=O)Nc3ccc(OC)cc3OC)c3ccccc3C(=O)N2C)cc1 (stereo unspecified)
EC50 (Plasmodium falciparum [1]): 4.82 µM
EC50 (Plasmodium falciparum [2]): 4.16 µM

COc1ccc(/C=C(\C#N)c2nn(CCO)c(N)c2C#N)cc1
EC50 (Plasmodium falciparum [1]): > 15 µM
EC50 (Plasmodium falciparum [2]): > 15 µM

Cc1cc(O)nc(-n2nc(C)cc2NC(=O)c2cccc(C(F)(F)F)c2)n1
EC50 (Plasmodium falciparum [1]): 1.5 µM
EC50 (Plasmodium falciparum [2]): > 15 µM

CC(C)(C)c1ccc2c(c1)CN(Cc1ccccc1)CO2
EC50 (Plasmodium falciparum [1]): 0.0523 µM
EC50 (Plasmodium falciparum [2]): 0.239 µM

Cc1cc(N2CCN(C)CC2)nc2ccc(NC(=S)NCCCN3CCc4ccccc4C3)cc12
EC50 (Plasmodium falciparum [1]): 6.68 µM
EC50 (Plasmodium falciparum [2]): 1.48 µM

CCCC(=O)NC(c1ccc(Cl)cc1)c1c(OC(C)=O)ccc2ccccc12 (stereo unspecified)
EC50 (Plasmodium falciparum [1]): 9.29 µM
EC50 (Plasmodium falciparum [2]): 6.92 µM

Cc1cc(C)c2nc(C)cc(Nc3cccc(Cl)c3)c2c1
EC50 (Plasmodium falciparum [1]): 3.83 µM
EC50 (Plasmodium falciparum [2]): 0.812 µM

CCCCn1c(N)c(C#N)c2nc3ccccc3nc21
EC50 (Plasmodium falciparum [1]): 6.01 µM
EC50 (Plasmodium falciparum [2]): 1.52 µM

Cc1cc(C)c2sc(N(Cc3cccnc3)C(=O)c3ccc(C#N)cc3)nc2c1
EC50 (Plasmodium falciparum [1]): 3.94 µM
EC50 (Plasmodium falciparum [2]): 5.77 µM

CCOc1ccc(NC2=C/C(=N/S(=O)(=O)c3ccc(OC)cc3)c3ccccc3C2=O)cc1
EC50 (Plasmodium falciparum [1]): 0.155 µM
EC50 (Plasmodium falciparum [2]): 0.352 µM

COc1ccc(C2CC(=O)C3=C(C2)NC(=O)CC3c2ccc(O)cc2)cc1OC (stereo unspecified)
EC50 (Plasmodium falciparum [1]): 0.977 µM
EC50 (Plasmodium falciparum [2]): 1.66 µM

CCOC(=O)c1c(CSC(=N)N)n(-c2ccccc2)c2cc(Br)c(OC(C)=O)cc12
EC50 (Plasmodium falciparum [1]): 2.9 µM
EC50 (Plasmodium falciparum [2]): 0.749 µM

COc1ccc(Cl)c2sc(N(Cc3cccnc3)C(=O)c3ccc(C(C)=O)cc3)nc12
EC50 (Plasmodium falciparum [1]): 3.86 µM
EC50 (Plasmodium falciparum [2]): 4.06 µM

Cc1ccc(Nc2cc(C)nc(Nc3ccc(NS(=O)(=O)c4ccc(F)cc4)cc3)n2)cc1
EC50 (Plasmodium falciparum [1]): 7.04 µM
EC50 (Plasmodium falciparum [2]): 0.746 µM

COc1ccc(N2CCN(C(CNC(=O)CC(C)(C)C)c3ccc4c(c3)OCO4)CC2)cc1 (stereo unspecified)
EC50 (Plasmodium falciparum [1]): 2.01 µM
EC50 (Plasmodium falciparum [2]): 4.28 µM

O=C(CN(Cc1ccc(Cl)cc1)S(=O)(=O)c1ccccc1)N1CCN(c2ccccc2F)CC1
EC50 (Plasmodium falciparum [1]): 2.13 µM
EC50 (Plasmodium falciparum [2]): 2.91 µM

CCN(CC)c1cc(C)c2cc(NC(=O)c3cccc(OC)c3)ccc2n1
EC50 (Plasmodium falciparum [1]): > 15 µM
EC50 (Plasmodium falciparum [2]): 4.77 µM

CCC1CCCCN1S(=O)(=O)c1ccc(C(=O)NNc2nc3c(C)cccc3s2)cc1 (stereo unspecified)
EC50 (Plasmodium falciparum [1]): > 15 µM
EC50 (Plasmodium falciparum [2]): > 15 µM

CCOC(=O)N1CCC(NC(=O)Nc2cc(C(F)(F)F)cc(C(F)(F)F)c2)CC1
EC50 (Plasmodium falciparum [1]): 1.29 µM
EC50 (Plasmodium falciparum [2]): 0.992 µM

CCOc1ccccc1N(CC(=O)Nc1ccccc1C(C)C)S(=O)(=O)c1ccccc1
EC50 (Plasmodium falciparum [1]): > 15 µM
EC50 (Plasmodium falciparum [2]): > 15 µM

C=CCN1C=CC(=Cc2ccc3cc(C)ccc3[n+]2CC)C=C1
EC50 (Plasmodium falciparum [1]): 0.55 µM
EC50 (Plasmodium falciparum [2]): 1.4 µM

CCOc1cc(/C=C/c2ccc3cccc(O)c3n2)ccc1O
EC50 (Plasmodium falciparum [1]): > 15 µM
EC50 (Plasmodium falciparum [2]): > 15 µM

COc1ccc(C2NCCc3c2[nH]c2ccccc32)cc1CN1CCN(c2ccc([N+](=O)[O-])cc2)CC1 (stereo unspecified)
EC50 (Plasmodium falciparum [1]): 3.81 µM
EC50 (Plasmodium falciparum [2]): 3.65 µM

CCOc1cccc(C(=O)Nc2nonc2-c2ccc(OCC)c(OCC)c2)c1
EC50 (Plasmodium falciparum [1]): 0.217 µM
EC50 (Plasmodium falciparum [2]): 0.169 µM

Cc1ccc(N(CC(=O)NCCSc2ccc(Cl)cc2)S(=O)(=O)c2ccc(F)cc2)cc1
EC50 (Plasmodium falciparum [1]): > 15 µM
EC50 (Plasmodium falciparum [2]): > 15 µM

CC(C)(C)c1ccc(C(=O)Nc2nc3c(s2)CN(Cc2ccccc2)CC3)cc1
EC50 (Plasmodium falciparum [1]): > 15 µM
EC50 (Plasmodium falciparum [2]): > 15 µM

CCCOC(=O)c1cccc(NC(=O)C23CCC(C)(C(=O)O2)C3(C)C)c1 (stereo unspecified)
EC50 (Plasmodium falciparum [1]): > 15 µM
EC50 (Plasmodium falciparum [2]): > 15 µM

COc1ccc(Nc2cc(C)nc(Nc3ccc(NS(=O)(=O)c4cccc(Cl)c4)cc3)n2)cc1
EC50 (Plasmodium falciparum [1]): > 15 µM
EC50 (Plasmodium falciparum [2]): 2.39 µM

O=C(Nc1ccc(F)c(Cl)c1)Nc1ccc(Cl)c(Cl)c1
EC50 (Plasmodium falciparum [1]): 1.63 µM
EC50 (Plasmodium falciparum [2]): 5.41 µM
